Counter-ions that a name gives are not always drawn. A value given as a limit tells only on which side of the number the result lay.

This note sets out measurements from patent US8119627B2 (Sterix Limited, priority 2005, dated 2012).

Series [1] addresses T1, human 17β-HSD3 (Homo sapiens, UniProt P37058).
T1 construct: expressed in transfected cells; host or cells: 293-EBNA cells (human), stably transfected
T1 sequence (P37058 1-310): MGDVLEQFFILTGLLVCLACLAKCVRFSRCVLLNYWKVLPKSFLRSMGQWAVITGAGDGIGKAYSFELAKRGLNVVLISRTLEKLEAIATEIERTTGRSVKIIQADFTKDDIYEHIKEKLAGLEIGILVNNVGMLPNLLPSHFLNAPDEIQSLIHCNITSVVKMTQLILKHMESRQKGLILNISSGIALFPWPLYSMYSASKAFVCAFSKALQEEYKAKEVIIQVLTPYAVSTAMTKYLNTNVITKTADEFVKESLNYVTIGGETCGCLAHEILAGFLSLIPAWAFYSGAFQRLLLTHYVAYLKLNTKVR
Kind of series: 17β-Hydroxysteroid dehydrogenase Type 3 activity in stably transfected 293-EBNA cells (3H-androstenedione to testosterone conversion). It is filed as cell-based. Particulars: 10 μM test compound; 293-EBNA cells stably transfected with 17β-HSD Type 3; 2-3 nM 3H-androstenedione; 2 hours. As to the method: Assay Protocol—17β-Hydroxysteroid Dehydrogenase Type 3 Activity in the Presence of Regulatory Agents
293-EBNA cells stably transfected with 17β-HSD Type 3 were plated at 50,000 cells/well in 24 well plates in complete growth medium. After 48 hours 2-3 nM ^3H-Androstenedione in assay medium (500 ml MEME medium with 5 ml 100× Pen/Strep, 5 ml 100×L-Glutamine, 5 ml 100×NEAA and 5 ml 7.5% sodium bicarbonate solution) was added with or without test compound at 1.5 ml/well (triplicate), and the cells incubated at 37° C.
Two hours later 1 ml medium was removed from each well and placed in a 125×16 mm glass test tube containing 25 μl of recovery solution (5000 dpm ^14C-Testosterone and 25 μg unlabelled Testosterone). Ether (4 ml) was added and the tubes vortexed at high speed for 2×30 sec. After the samples had settled into two phases they were snap-frozen in a dry ice/methanol bath. The upper organic phase was decanted into 75×12 mm tubes and evaporated to dryness under an airstream using a sample concentrator (TECHNE) at 40° C. The samples were resuspended in ether (8 drops, then a further 3), spotted onto silica 60 F254 20 cm×20 cm TLC plates, and separated using a 4:1 v/v dichloromethane:ethyl acetate mobile phase.
After drying the plates, the major spots were marked under a UV lamp, cut out, and placed in individual scintillation vials containing 0.5 ml methanol. These were then shaken lightly and allowed to stand for 15 min before adding 10 ml of EcoScint A (scintillation fluid) to each tube along with 0.5 ml assay medium, and counted in a scintillation spectrometer (Beckman) using a program for dual [^3H/^14C] isotopes. The number of cells/well was then counted using a Coulter counter (Beckman).
The inhibitory activity of the test compounds is then assessed by calculating the amount of product formed correcting for crossover between isotope counts, recovery, dilution and non-enzymatic degradation (fmol/hr/million cells) with and without inhibitor, (% inhibition).
Compounds were tested at 10 μM for inhibition of human 17β-HSD3 with typically […] human 293-EBNA cells/well.

In the case of `CC(=O)N1CCC(Nc2ccccc2Oc2ccc(Cl)cc2)c2ccccc21` (stereo not shown) [STX2138], the inhibition at 10 µM in series [1] is 20 to 60%.

`CC(=O)N1CC(N(Cc2ccccc2Oc2ccc(Cl)cc2)C(C)=O)Cc2ccccc21` (stereo not shown) [STX2525, N-(1-Acetyl-1,2,3,4-tetrahydro-quinolin-3-yl)-N-[2-(4-chloro-phenoxy)-benzyl]-acetamide]: the inhibition at 10 µM in series [1] was 20 to 60%.

`CC(=O)N1CCC(C(=O)Nc2ccccc2Oc2ccc(Cl)cc2)CC1` [STX1617, 1-Acetylpiperidine-4-carboxylic acid [2-(4-chlorophenoxy)phenyl]amide] returned a melting point of 195 to 196 °C. Further, the inhibition at 10 µM in series [1] lay in the range of 20 to 60%.

`CC(=O)NCCC(=O)Nc1ccccc1Oc1ccc(Cl)cc1` [STX1859, N-[2-(4-chlorophenoxy)phenyl]-3-acetamidopropanamide]: in series [1], the inhibition at 10 µM was less than 20%.

`O=C(NC1CCN(C(=O)c2ccccc2)CC1)c1ccccc1Oc1ccc(Cl)cc1Cl` gave a melting point of 63 to 66 °C.

`CC(=O)N1CCCC(Nc2ccccc2Oc2ccc(Cl)cc2)CC1` (stereo not shown) [STX1762, 1-(4-(2-(4-chlorophenoxy)phenylamino)azepan-1-yl)ethanone] returned an inhibition at 10 µM in series [1] greater than 60%.

Turning to `CC(=O)NC(CC(=O)Nc1ccccc1Oc1ccc(Cl)cc1)c1ccccc1` (stereo not shown) [STX1858, N-[2-(4-chlorophenoxy)phenyl]-3-acetamido-3-phenylpropanamide], in series [1], the inhibition at 10 µM was less than 20%.

In the case of `O=C(Nc1ccccc1Oc1ccc(Cl)cc1Cl)C1CCN(C(=O)c2ccccc2)CC1` [STX1613, 1-Benzoylpiperidine-4-carboxylic acid [2-(2,4-dichloro-phenoxy)phenyl]amide], the melting point fell in the range of 176 to 177 °C. The inhibition at 10 µM in series [1] lay within 20 to 60%.

Turning to `O=C(c1ccccc1)N1CCC(Nc2ccccc2Oc2ccc(Cl)cc2)CC1`, in series [1], the inhibition at 10 µM is greater than 60%.

Regarding `CC(=O)N1CCC(C(=O)Nc2ccccc2Oc2ccc(OC(F)(F)F)cc2)CC1` [STX1624, 1-Acetyl-piperidine-4-carboxylic acid [2-(4-trifluoromethoxy-phenoxy)-phenyl]-amide], the inhibition at 10 µM in series [1] was 20 to 60%.

On to `CC(=O)N1CCC(Nc2ccccc2Oc2ccc(Cl)cc2)CC1C(C)C` (stereo not shown) [STX2523, 1-(4-(2-(4-Chlorophenoxy)phenylamino)-2-iso-propylpiperidin-1-yl)ethanone], for which the inhibition at 10 µM in series [1] is greater than 60%.

`CC(=O)N1CCC(C(=O)Nc2ccccc2Oc2cc(Cl)cc(Cl)c2)CC1` [STX1604, 1-Acetyl-piperidine-4-carboxylic acid [2-(3,5-dichloro-phenoxy)-phenyl]-amide] came in with an inhibition at 10 µM in series [1] of 20 to 60%.

For `O=C(Nc1ccccc1Oc1cc(Cl)cc(Cl)c1)C1CCN(C(=O)c2ccccc2)CC1` [STX1605, 1-Benzoyl-piperidine-4-carboxylic acid [2-(3,5-dichloro-phenoxy)-phenyl]-amide], in series [1], the inhibition at 10 µM was 20 to 60%.

In the case of `O=C(Nc1ccccc1Oc1ccc(Cl)cc1Cl)C1CCN(S(=O)(=O)c2cc(Cl)ccc2Cl)CC1`, the melting point was in the range of 194 to 196 °C.

For the molecule `CC(=O)N1CCC(Nc2ccccc2Oc2ccc(Cl)cc2)CC1c1ccccc1` (stereo not shown) [STX2419, 1-(4-(2-(4-Chlorophenoxy)phenylamino)-2-phenylpiperidin-1-yl)ethanone], the inhibition at 10 µM in series [1] is 20 to 60%.

`CC(=O)N1CCCC(Nc2ccccc2Oc2ccc(Cl)cc2)c2ccccc21` (stereo not shown) [STX2171, 1-Acetyl-5-[2-(4-Chloro-phenoxy)-phenylamino]-2,3,4,5-tetrahydro-benzo[b]azepine]: in series [1], the inhibition at 10 µM was greater than 60%.

Molecule `O=C(Nc1ccccc1Oc1ccc(OC(F)(F)F)cc1)C1CCN(C(=O)c2ccccc2)CC1` [STX1625, 1-Benzoyl-piperidine-4-carboxylic acid [2-(4-trifluoromethoxy-phenoxy)-phenyl]-amide] returned an inhibition at 10 µM in series [1] of 20 to 60%.

Take `CC(C)(C)C(=O)N1CCC(Nc2ccccc2Oc2ccc(Cl)cc2)CC1` [STX1631, 1-{4-[2-(4-chlorophenoxy)phenylamino]-piperidin-1-yl}-2,2-dimethylpropan-1-one]: the inhibition at 10 µM in series [1] lay within 20 to 60%.

`O=C(c1ccccc1)N1CCC(Nc2ccccc2Oc2ccc(Cl)cc2Cl)CC1` [STX1623, {4-[2-(2,4-Dichlorophenoxy)phenylamino]piperidin-1-yl}phenylmethanone] returned an inhibition at 10 µM in series [1] greater than 60%.

Take `O=C(Nc1ccccc1Oc1ccc(Cl)cc1)C1CCN(C(=O)c2ccccc2)CC1` [STX1615, 1-Benzoylpiperidine-4-carboxylic acid [2-(4-chlorophenoxy)phenyl]amide]: the melting point fell in the range of 158 to 160 °C. Besides, the inhibition at 10 µM in series [1] was less than 20%.

`CC(=O)N1CCC(Nc2ccccc2Oc2ccc(Cl)cc2Cl)CC1` [STX1616, 1-{4-[2-(2,4-Dichlorophenoxy)phenylamino]piperidin-1-yl}ethanone] gave a melting point of 145 to 146 °C. The molecule also displayed an inhibition at 10 µM in series [1] greater than 60%.

The molecule `CC(=O)N1CCC(C(=O)Nc2ccccc2Oc2ccc(Cl)cc2Cl)CC1` [STX1614, 1-Acetylpiperidine-4-carboxylic acid [2-(2,4-dichlorophenoxy)phenyl]amide] yielded a melting point of 194 to 196 °C. The inhibition at 10 µM in series [1] is greater than 60%.

Regarding `CC(C)C(=O)N1CCC(NC(=O)c2ccccc2Oc2ccc(Cl)cc2Cl)CC1`, the melting point was in the range of 51 to 54 °C.

Molecule `O=C(Nc1ccccc1Oc1ccc(C(F)(F)F)cc1)C1CCN(C(=O)c2ccccc2)CC1` [STX1607, 1-Benzoyl-piperidine-4-carboxylic acid [2-(4-trifluoromethyl-phenoxy)-phenyl]-amide] showed an inhibition at 10 µM in series [1] of 20 to 60%.

`CC(=O)N1CCC(Nc2ccccc2Oc2ccc(Cl)cc2)CC1` [STX1629, 1-{4-[2-(4-chlorophenoxy)phenylamino]-piperidin-1-yl}-ethanone] gave an inhibition at 10 µM in series [1] greater than 60%.

For the molecule `CC(=O)N1CCC(C(=O)Nc2ccccc2Oc2ccc(C(F)(F)F)cc2)CC1` [STX1606, 1-Acetyl-piperidine-4-carboxylic acid [2-(4-trifluoromethyl-phenoxy)-phenyl]-amide], the inhibition at 10 µM in series [1] fell in the range of 20 to 60%.

In series [1], `CC(=O)N1CCC(Nc2ccccc2-c2ccccc2Oc2ccccc2)CC1` [STX2048, 1-[4-(2′-Phenoxybiphenyl-2-ylamino)piperidin-1-yl]ethanone hydrochloride] had an inhibition at 10 µM of 20 to 60%.

In series [1], `CC(=O)N1CCC(Nc2ccccc2-c2ccc(Cl)cc2)CC1` [STX2044, 1-[4-(4′-Chlorobiphenyl-2-ylamino)piperidin-1-yl]ethanone] came in with an inhibition at 10 µM of 20 to 60%.

In series [1], `O=C(c1ccco1)N1CCC(Nc2ccccc2Oc2ccc(Cl)cc2Cl)CC1` [STX1779, {4-[2-(2,4-Dichloro-phenoxy)-phenylamino]-piperidin-1-yl}-furan-2-yl-methanone] had an inhibition at 10 µM of 20 to 60%.
